Measurements from patent EP0970046B1, “N-HYDROXY-2-(ALKYL, ARYL, OR HETEROARYL SULFANYL, SULFINYL OR SULFONYL)-3-SUBSTITUTED ALKYL, ARYL OR HETEROARYLAMIDES AS MATRIX METALLOPROTEINASE INHIBITORS” (Wyeth Holdings Corporation, priority 1997, dated 1998).
Read-outs that look alike come from different tables or passages of the source. One block for each compound: values may come before it.

Key:
Type in all cases: biochemical
[1] = molecular target: MMP 13 (Homo sapiens, UniProt P45452); test: MMP 13 inhibition (IC50 / manual assay; method not described); settings: for inhibition at 1 µM: read-out: MMP 13 % inhibition at 1 micromolar
[2] = molecular target: T1, MMP 9 (Homo sapiens, UniProt P14780); test: In Vitro Gelatinase Assay; settings: human neutrophil gelatinase B; for IC50: read-out: MMP 9 IC 50; for inhibition at 1 µM: read-out: MMP 9 % inhibition at 1 micromolar
T1 construct: from tissue; host or cells: human neutrophils
Outline: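 Human MMP-9 cleaves thiopeptide Ac-Pro-Leu-Gly(2-mercapto-4-methyl-pentanoyl)-Leu-Gly-OEt, with the released thiol reacting with DTNB. Substrate and DTNB were diluted together to 1 mM in 50 mM HEPES pH 7.5, 5 mM CaCl2. Rate came from the OD405 slope (r^2 >0.85), compared with control by Dunnett's test.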

[3] = molecular target: T2, MMP 1 (Homo sapiens, UniProt P03956); test: In Vitro Collagenase Assay; settings: for inhibition at 1 µM: read-out: MMP 1 % inhibition at 1 micromolar
T2 construct: human recombinant fibroblast collagenase (truncated, mw= 18,828, WAR, Radnor)
T2 sequence (P03956 100-269 limits assumed): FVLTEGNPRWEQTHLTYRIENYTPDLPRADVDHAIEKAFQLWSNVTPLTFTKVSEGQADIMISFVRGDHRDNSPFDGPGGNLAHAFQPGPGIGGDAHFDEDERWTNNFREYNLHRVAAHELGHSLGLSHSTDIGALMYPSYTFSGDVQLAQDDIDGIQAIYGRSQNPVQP
Outline: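 Collagenase (5 nM final) cleaves the quenched fluorogenic peptide Dnp-Pro-Cha-Gly-Cys(Me)-His-Ala-Lys(NMa)-NH2 (10 µM final) in HCBC buffer. Solvent is below 1.0%, and the reaction is started with substrate. Rate is taken from the fluorescence slope (r^2 >0.85), and drug-treated rates are compared with control by Dunnett's test.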

[4] = molecular target: T3, TACE (Homo sapiens, UniProt P78536); test: Procedure for Measuring TACE Inhibition; settings: for inhibition at 1 µM: read-out: TACE % inhibition at 1 micromolar; for IC50: read-out: TACE IC 50
T3 construct: purchased Immunex
Outline: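 Single-concentration screen: test compound at 1 µM final, 10-min room-temperature preincubation with 1 µg/mL protease in Tris pH 7.4 buffer containing glycerol. Initial rate from linear fluorescence increase (340/420 nm) over 10 min after adding 100 µM peptidyl substrate; significance versus control rate by Dunnett's test.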

[5] = human recombinant fibroblast collagenase, read-out: MMP 1 IC 50
[6] = 1 micromolar, human recombinant fibroblast collagenase

T3 sequence (P78536 215-824): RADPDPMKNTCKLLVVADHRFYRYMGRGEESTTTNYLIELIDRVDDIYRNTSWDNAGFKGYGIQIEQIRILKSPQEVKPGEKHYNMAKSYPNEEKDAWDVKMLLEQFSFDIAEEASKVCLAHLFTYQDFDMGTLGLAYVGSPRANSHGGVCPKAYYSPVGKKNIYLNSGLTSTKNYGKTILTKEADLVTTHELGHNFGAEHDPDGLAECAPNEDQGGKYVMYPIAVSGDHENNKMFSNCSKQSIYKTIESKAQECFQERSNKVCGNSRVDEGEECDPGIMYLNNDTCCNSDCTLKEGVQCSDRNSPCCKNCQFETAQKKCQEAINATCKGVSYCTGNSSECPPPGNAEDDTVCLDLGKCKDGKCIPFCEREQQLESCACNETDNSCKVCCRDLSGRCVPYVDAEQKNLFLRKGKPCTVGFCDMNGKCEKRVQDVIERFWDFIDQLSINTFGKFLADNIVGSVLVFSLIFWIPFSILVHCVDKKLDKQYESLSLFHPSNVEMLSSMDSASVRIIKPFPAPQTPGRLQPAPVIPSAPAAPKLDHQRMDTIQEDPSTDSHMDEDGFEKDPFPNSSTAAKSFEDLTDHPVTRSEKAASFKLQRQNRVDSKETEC
T1 sequence (P14780 94-707): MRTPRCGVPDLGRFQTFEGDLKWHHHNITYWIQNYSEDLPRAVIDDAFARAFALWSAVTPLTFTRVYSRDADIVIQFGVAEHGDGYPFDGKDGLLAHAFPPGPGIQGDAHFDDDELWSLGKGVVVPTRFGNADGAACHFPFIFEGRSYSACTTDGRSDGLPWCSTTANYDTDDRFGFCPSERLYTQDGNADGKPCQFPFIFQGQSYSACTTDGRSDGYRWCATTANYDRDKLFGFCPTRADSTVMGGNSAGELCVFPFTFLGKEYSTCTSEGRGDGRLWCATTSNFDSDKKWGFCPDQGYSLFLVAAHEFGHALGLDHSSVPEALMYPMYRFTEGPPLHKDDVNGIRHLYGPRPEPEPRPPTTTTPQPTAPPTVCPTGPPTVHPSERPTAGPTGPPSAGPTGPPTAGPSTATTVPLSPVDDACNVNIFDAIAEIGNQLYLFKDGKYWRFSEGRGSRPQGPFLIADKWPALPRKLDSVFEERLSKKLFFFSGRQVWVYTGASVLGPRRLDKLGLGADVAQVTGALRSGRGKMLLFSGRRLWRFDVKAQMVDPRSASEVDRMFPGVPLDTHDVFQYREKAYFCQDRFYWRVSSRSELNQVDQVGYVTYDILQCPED

SMILES: Cc1occc1S(=O)(=O)C(C)(Cc1ccccc1)C(=O)NO (centres unmarked) [Example 43, 2-Methyl-2-(2-methyl-furan-3-sulfonyl)-3-phenyl-propionic acid hydroxamide]
- inhibition at 1 µM [1]: 55.5%
- inhibition at 1 µM ([2]; 1 micromolar): 34.7%
- inhibition at 1 µM [3, 6]: 66.1%
- inhibition at 1 µM [4]: 46.6%

SMILES: CCC(Cc1ccc(OCCN2CCCCC2)cc1)(C(=O)NO)S(=O)(=O)c1ccc(OC)cc1 (centres unmarked) [Example 34, N-Hydroxy-2-(4-methoxy-benzenesulfonyl)-2-[4-(2-piperidin-1-yl-ethoxy)-benzyl]-butyramide]
- IC50 ([1]; read-out: MMP 13 IC 50): 26.1 nM
- IC50 [2]: 34.7 nM
- IC50 [3, 5]: 520 nM
- inhibition at 1 µM [4]: 28.1%

SMILES: COc1ccc(S(=O)(=O)C(C)(Cc2cccc(OCCN3CCOCC3)c2)C(=O)NO)cc1 (centres unmarked) [Example 30, N-Hydroxy-2-(4-methoxy-benzenesulfonyl)-2-methyl-3-[3-(2-morpholin-1-yl-ethoxy)-phenyl]-propionamide]
- IC50 ([1]; read-out: MMP 13 IC 50): 5.7 nM
- IC50 [2]: 8.1 nM
- IC50 [3, 5]: 397 nM
- inhibition at 1 µM [4]: 25.2%

SMILES: COc1ccc(S(=O)(=O)C2(C(=O)NO)CCN(Cc3ccc(OCCN4CCCCC4)cc3)CC2)cc1 [Example 109, 4-(4-Methoxy-benzenesulfonyl)-1-[4-(2-piperidin-1-yl-ethoxy)-benzyl]-piperidine-4-carboxylic acid hydroxyamide]
- IC50 ([1]; read-out: MMP 13 IC 50): 2.5 nM
- IC50 [2]: 2.7 nM
- IC50 [3]: 393 nM
- IC50 [4]: 386 nM

SMILES: CCCCCCCCS(=O)(=O)C(Cc1ccc(OCCN2CCCCC2)cc1)C(=O)NO (centres unmarked) [Example 46, 2-(octane-1-sulfonyl)-3-[4-(2-piperidin-yl-ethoxy)-phenyl]propionic acid hydroxamide]
- MMP 13 % inhibition at 1 micromolar [1]: 84.7%
- MMP 9 % inhibition at 1 micromolar ([2]; 1 micromolar): 79.12%
- MMP 1 % inhibition at 1 micromolar [3, 6]: 78.9%
- TACE % inhibition at 1 micromolar [4]: 1.4%

SMILES: CCN(CC)CCOc1cccc(CC(C)(C(=O)NO)S(=O)(=O)c2ccc(OC)cc2)c1 (centres unmarked) [Example 29, N-Hydroxy-2-(4-methoxy-benzenesulfonyl)-2-methyl-3-[3-(2-N,N-diethylamino-ethoxy)-phenyl]-propionamide]
- IC50 ([1]; read-out: MMP 13 IC 50): 3.6 nM
- IC50 [2]: 4.3 nM
- IC50 [3, 5]: 297 nM
- TACE % inhibition at 1 micromolar [4]: 41%

SMILES: CCC(Cc1ccc(OCCN2CCOCC2)cc1)(C(=O)NO)S(=O)(=O)c1ccc(OC)cc1 (centres unmarked) [Example 33, N-Hydroxy-2-(4-methoxy-benzenesulfonyl)-2-[4-(2-morpholin-4-yl-ethoxy)-benzyl]-butyramide]
- IC50 ([1]; read-out: MMP 13 IC 50): 18.4 nM
- IC50 [2]: 53.9 nM
- IC50 [3, 5]: 318 nM
- inhibition at 1 µM [4]: 23.9%

SMILES: COc1ccc([S+]([O-])C(C(=O)NO)C(C)C)cc1 (centres unmarked) [Example 7, N-Hydroxy-2-(4-methoxy-benzenesulfinyl)-3-methyl-butyramide]
- IC50 ([1]; read-out: MMP 13 IC 50): 42.1 nM
- IC50 [2]: 72.9 nM
- IC50 [3, 5]: 844 nM
- inhibition at 1 µM [4]: 33%

SMILES: COc1ccc(S(=O)(=O)C(C)(CC2CCCCC2)C(=O)NO)cc1 (centres unmarked) [Example 16, 3-Cyclohexyl-N-hydroxy-2-(4-methoxy-benzenesulfonyl)-2-methyl-propionamide]
- IC50 ([1]; read-out: MMP 13 IC 50): 24 nM
- IC50 [2]: 9 nM
- IC50 [3, 5]: 325 nM
- IC50 [4]: 180 nM

SMILES: CCCCCCC(Sc1ccc(F)cc1)C(=O)NO (centres unmarked) [Example 38, 2-(4-Fluoro-phenylsulfanyl)-octanoic acid hydroxyamide]
- inhibition at 1 µM [1]: 5.8%
- inhibition at 1 µM ([2]; 1 micromolar): 1.7%
- inhibition at 1 µM [3, 6]: 48.3%
- inhibition at 1 µM [4]: 55.1%

SMILES: CCCCCCC(Cc1ccc(OCCN2CCCCCC2)cc1)(C(=O)NO)S(=O)(=O)c1ccc(OC)cc1 (centres unmarked) [Example 36, 2-[4-(2-Azepan-1-yl-ethoxy)-benzyl]-2-(4-Methoxy-benzenesulfonyl)-octanoic acid hydroxyamide]
- IC50 ([1]; read-out: MMP 13 IC 50): 20.7 nM
- IC50 [2]: 83.8 nM
- IC50 [3, 5]: 622 nM
- IC50 [4]: 826 nM

Further lines, results first:

- IC50 ([1]; read-out: MMP 13 IC 50): 4.1 nM
- IC50 [2]: 44.2 nM
- IC50 [3, 5]: 1210 nM
- inhibition at 1 µM [4]: 50.2%
SMILES: COc1ccc(S(=O)(=O)C2(C(=O)NO)CCN(CCCOc3ccccc3)CC2)cc1 [Example 105, 4-(4-Methoxy-benzenesulfonyl)-1-(3-phenoxy-propyl)-piperidine-4-carboxylic acid hydroxyamide]

- IC50 ([1]; read-out: MMP 13 IC 50): 226 nM
- IC50 [2]: 131 nM
- IC50 [3, 5]: 1600 nM
- inhibition at 1 µM [4]: 42.3%
SMILES: COc1ccc(S(=O)(=O)C(Cc2cccnc2)(CC(C)C)C(=O)NO)cc1 (centres unmarked) [Example 66, 2-(4-Methoxy-benzenesulfonyl)-4-methyl-2-pyridin-3-ylmethyl-pentanoic acid hydroxyamide]

- inhibition at 1 µM [1]: 63.6%
- inhibition at 1 µM ([2]; 1 micromolar): 26%
- inhibition at 1 µM [3, 6]: 22.1%
- IC50 [4]: 191 nM
SMILES: CCCCCC(Sc1ccc(OC)cc1)C(=O)NO (centres unmarked) [Example 80, 2-(4-methoxy-phenylsulfanyl)-heptanoic acid hydroxyamide]

- IC50 ([1]; read-out: MMP 13 IC 50): 21 nM
- IC50 [2]: 66 nM
- IC50 [3, 5]: 110 nM
- inhibition at 1 µM [4]: 55.1%
SMILES: COc1ccc(S(=O)(=O)C2(C(=O)NO)CCCC2)cc1 [Example 54, 1-(4-Methoxy-benzenesulfonyl)-cyclopentanecarboxylic acid hydroxyamide]

- IC50 ([1]; read-out: MMP 13 IC 50): 32.7 nM
- IC50 [2]: 83.4 nM
- IC50 [3, 5]: 672 nM
- inhibition at 1 µM [4]: 23.8%
SMILES: C#CCC(Cc1cccnc1)(C(=O)NO)S(=O)(=O)c1ccc(OC)cc1 (centres unmarked) [Example 75, 2-(4-Methoxy-benzenesulfonyl)-2-pyridin-3-ylmethyl-pent-4-ynoic acid hydroxyamide]

- inhibition at 1 µM [1]: 7.12%
- inhibition at 1 µM ([2]; 1 micromolar): 12.9%
- inhibition at 1 µM [3, 6]: 17.1%
- inhibition at 1 µM [4]: 3.3%
SMILES: Cn1ccnc1S(=O)(=O)C(C)(Cc1ccc(-c2ccccc2)cc1)C(=O)NO (centres unmarked) [Example 47, 3-Biphenyl-4-yl-2-methyl-2-(1-methyl-1H-imidazole-2-sulfonyl)-propionic acid hydroxyamide]

- IC50 [1]: 3 nM
- IC50 [2]: 9 nM
- IC50 [3, 5]: 156 nM
- IC50 [4]: 203 nM
SMILES: COc1ccc(S(=O)(=O)C(CC=C(C)C)(Cc2cccnc2)C(=O)NO)cc1 (centres unmarked) [Example 63, 2-(4-Methoxy-benzenesulfonyl)-5-methyl-2-pyridin-3-ylmethyl-hex-4-enoic acid hydroxyamide]

- IC50 ([1]; read-out: MMP 13 IC 50): 7 nM
- IC50 [2]: 10 nM
- IC50 [3, 5]: 303 nM
- inhibition at 1 µM [4]: 21.7%
SMILES: COc1ccc(S(=O)(=O)C(C)(Cc2ccccc2Br)C(=O)NO)cc1 (centres unmarked) [Example 55, 3-(2-Bromo-phenyl)-N-hydroxy-2-(4-methoxy-benzenesulfonyl)-2-methyl-propionamide]

- IC50 ([1]; read-out: MMP 13 IC 50): 13 nM
- IC50 [2]: 63 nM
- IC50 [3, 5]: 1000 nM
- inhibition at 1 µM [4]: 42.2%
SMILES: CCCCCC#CCC(CC#CCCCCC)(C(=O)NO)S(=O)(=O)c1ccc(OC)cc1 [Example 71, 2-(4-methoxy-benzenesulfonyl)-2-oct-2-ynyl-dec-4-ynoic acid hydroxyamide]

- IC50 ([1]; read-out: MMP 13 IC 50): 2 nM
- IC50 [2]: 8.8 nM
- IC50 [3, 5]: 519 nM
- IC50 [4]: 213 nM
SMILES: COc1ccc(S(=O)(=O)C2(C(=O)NO)CCN(Cc3cccc(OC)c3)CC2)cc1 [Example 84, 4-(4-methoxy-benzenesulfonyl)-1-(3-methoxy-benzyl)-piperidine-4-carboxylic acid hydroxyamide]

- MMP 13 % inhibition at 1 micromolar [1]: 85.4%
- inhibition at 1 µM ([2]; 1 micromolar): 79.1%
- inhibition at 1 µM [3, 6]: 99.1%
- inhibition at 1 µM [4]: 51.1%
SMILES: CC(Cc1ccccc1)(C(=O)NO)S(=O)(=O)c1cccs1 (centres unmarked) [Example 48, 2-Methyl-3-phenyl-2-(thiophene-2-sulfonyl)-propionic acid hydroxamide]

- IC50 ([1]; read-out: MMP 13 IC 50): 2.4 nM
- IC50 [2]: 16.2 nM
- IC50 [3, 5]: 656 nM
- IC50 [4]: 250 nM
SMILES: COc1ccc(S(=O)(=O)C2(C(=O)NO)CCN(Cc3ccc(F)cc3)CC2)cc1 [Example 99, 1-(4-Fluoro-benzyl)-4-(4-methoxy-benzenesulfonyl)-piperidine-4-carboxylic acid hydroxyamide]

- IC50 ([1]; read-out: MMP 13 IC 50): 7 nM
- IC50 [2]: 38.6 nM
- IC50 [3, 5]: 1390 nM
- inhibition at 1 µM [4]: 49%
SMILES: COc1ccc(S(=O)(=O)C2(C(=O)NO)CCN(CC=C(C)C)CC2)cc1 [Example 89, 4-(4-methoxy-benzene-sulfonyl)-1-(3-methyl-but-2-enyl)piperidine-4-carboxylic acid hydroxamide]

- IC50 ([1]; read-out: MMP 13 IC 50): 1.5 nM
- IC50 [2]: 16.8 nM
- IC50 [3, 5]: 494 nM
- IC50 [4]: 222 nM
SMILES: COc1ccc(S(=O)(=O)C2(C(=O)NO)CCN(Cc3ccc(C)cc3)CC2)cc1 [Example 86, 4-(4-methoxy-benzenesulfonyl)-1-(4-methylbenzyl)-piperidine-4-carboxylic acid hydroxamide]

- IC50 ([1]; read-out: MMP 13 IC 50): 1.5 nM
- IC50 [2]: 5.8 nM
- IC50 [3, 5]: 450 nM
- IC50 [4]: 115 nM
SMILES: COc1ccc(S(=O)(=O)C2(C(=O)NO)CCN(Cc3ccc(Cl)c(Cl)c3)CC2)cc1 [Example 85, 1-(3,4-dichlorobenzyl) -4-(4-methoxy-benzenesulfonyl)-piperidine-4-carboxylic acid hydroxamide]
